According to patent US9241928B2, “Antimicrobial compounds” (The General Hospital Corporation, priority 2009, dated 2016):

Key:
[1] = tested on: C. elegans infected with E. faecalis; assay: Dose response time courses in the C. elegans-E. faecalis infection assay; assay type: in vivo, Caenorhabditis elegans; details: Effective Concentration: survival significantly different from mock-treated, p-value <0.05, logrank; read-out: EC
Protocol: (§1) glp-4(bn2); sek-1 (km4) mutant worms were grown to gravid adult stage. 1,000 worms at the L1 stage were grown for 5.2 days at 15° C. on 9-cm plates of SK agar media spread with a lawn of E. coli strain HB101. Embryos from the gravid adults were isolated by a previously described hypochlorite method (see Tan et al., (1999) Proc. Natl. Acad. Sci. USA 96, 715-720) and hatched at 15° C. for 2 days. Approximately 4,500 of the Ll hatchlings were grown on each 9-cm plate of SK-NS agar (SK media with 62.5 U/ml nystatin and 100 μg/ml streptomycin) and with lawns of E. coli HB101. These worms were grown at 25° C. for 52 hours to generate sterile, young adults.
(§2) A culture of E. faecalis MMH594 was grown in BHI broth (BD Difco) with 80 μg/ml kanamycin at 37° C. for 6 hours and 100 μl of the culture were spread onto each 9-cm plate of BHI agar containing 80 μg/mlkanamycin. Lawns of E. faecalis were grown at 25° C. for 16 hours and transferred to 15° C. for 8 hours.
(§3) Sterile adult worms were resuspended in M9 buffer and washed twice with M9 in a 1:10 ratio to remove E. coli. 8,000 worms were pipetted onto each lawn of E. faecalis and incubated 15 hours at 15° C. After infection, the worms were resuspended in M9 and used as described below. 384-well plates (Corning #3712) were filled with 55 μl media (see below) using a Thermo Scientific MULTIDROP Combi reagent dispenser. 0.3 μl of a candidate compound in DSMO were pin transferred into each well using a CyBio CYBI-Well vario transfer system. The plates were agitated using an Eppendorf MIXMATE at 1,800 rpm for 15 seconds. Using the Union Biometrica Complex Object Parametric Analyzer and Sorter (COPAS) BIOSORT worm sorter according to manufacturer's protocols, 15 of the infected worms were transferred to each well in a total volume of approximately 15 μl. Total volume per well is 70 μl/well with a final composition of the media being 20% BHI, […], 80 μg/ml kanamycin, 62.5 U/ml nystatin, 1% DMSO, and 19% sheath solution (Union Biometrica Part #300-5101-000). Plates were vortexed for 5 seconds, centrifuged at 1000×g for 10 seconds, and sealed with gas permeable membranes (BREATHEASY Diversified). Plates were placed in a single layer on the top shelves in a 26.3° C. incubator at 85% relative humidity (RH) and incubated without agitation for 5 days.
The dose dependence of certain antimicrobial compounds identified by the assay above were studied. These compounds were purchased in a larger amount from commercial sources. For each of these compounds, an infection assay was performed essentially as described above at different concentrations except that SYTOX staining was not used. Instead, bright-field images of the wells were acquired at daily time points and scored manually for worm survival by analyzing worm body positioning. […] All compounds used in this assays were confirmed for their identity and purity by liquid chromatography/mass spectrometry.

[2] = tested on: P. aeruginosa strain PA14 infection in Caenorhabditis elegans; assay: Liquid assay for PA14 infection of C. elegans; assay type: in vivo
Protocol: A liquid assay for PA14 infection of C. elegans in a 96-well plate format was developed. In brief, temperature-sterile glp-4 and glp-4;sek-1 worms were synchronized according to standard protocols. L1 larvae were plated, incubated for 16 hours at 15° C., and then for an additional 48 hours at […], which brought them to a young adult stage. In parallel, PA14 bacteria were grown overnight prior to being plated on SK medium plates (see Tan et al., Proc. Natl. Acad. Sci., 96(2): 715-720). PA14-inoculated plates were incubated for 24 hours at 37° C. prior to an 18 hours incubation at 25° C. Subsequently, bacteria were removed from plates and resuspended in S Basal media (see Stiernagle, (2006) “Maintenance of C. elegans” WormBook, ed. The C. elegans. Research Community http://www.wormbook.org/). 96-well polystyrene plates were prepared with a medium containing either 20% SK and 80% S Basal or 50% SK and 50% S Basal, with a bacterial density of OD600=0.03. […] Dispensation of 25 young adult glp-4 or glp-4; sek-1 worms to each well using a COPAS BioSort robot brought the final total volume to […]. After worms were added, each plate was sealed with a gas permeable membrane and incubated for 48 hours at 25° C. […] Worms were stained for 18 hours at 20° C. and each well was photographed using bright-field and red fluorescence channels with a Molecular Devices Discovery-1 Microscope.

PA14 = assay: Growth of PA14 in presence of compound (data not shown); assay type: cell-based, Pseudomonas aeruginosa; details: 3.125 μg/mL
[3] = tested on: C. elegans infected with E. faecalis; assay: Automated infection assay for primary compound screening (SYTOX staining, CELLPROFILER); assay type: in vivo, Caenorhabditis elegans
Protocol: In general, the area of each well that is SYTOX-positive in the fluorescence image is measured and normalized by the total area occupied by all worms, which is quantified in the bright field image. This typically requires illumination correction to flatten lighting abnormalities, adaptive thresholding, and size- and contrast-based filters and masks to exclude debris and other artifacts. By calculating the ratio of the fluorescent area (which corresponds to the area occupied by dead worms) to the total area occupied by all worms, one can accurately determine the number of dead worms in each well. […] In a well where the worms are rescued by ampicillin treatment, 3 of the 14 worms were dead based on manual scoring. The ratio of the fluorescent area to the area occupied by all worms obtained by the CELLPROFILER analysis is correspondingly low at 0.12.
as §1, §2, §3
After 5 days, the bacteria and liquid media in the assay plates were removed as described below. First, the bacteria were re-suspended by shaking on the MIXMATE for 15 seconds at 1,800 rpm, the sealing membrane was removed, and the worms were allowed to settle to the bottom of the wells for 3 minutes. […]

| Compound | minimal effective concentration [1] [µg/mL] | mortality of PA14-infected worms ([2]; 3.125 μg/mL, glp-4 and glp-4;sek-1 worms, 48 hours) [%] | effect of increasing the dosage on efficacy ([2]; 6.25 and 20 μg/mL versus 3.125 μg/mL) | effect on PA14 (growth) (PA14) | curing activity in the primary screen ([3]; primary screen) | retest in secondary screen ([3]; secondary experiment) |
| --- | --- | --- | --- | --- | --- | --- |
| NNc1ccc2c(Cl)cc(Cl)c(O)c2n1 [Compound 11] | 0.2 | ≤ 30 | did not increase its efficacy | unaffected |  |  |
| Cc1ccc(Nc2nc(N)c3ccccc3n2)cc1Cl [Compound 26] |  |  |  |  | cured infected C. elegans | did not re-test |
